In paper PMC9161449, “FUT8-Directed Core Fucosylation of N-glycans Is Regulated by the Glycan Structure and Protein Environment” (ACS Catalysis, 2021):
Where “and” joins values, the source holds several entries; their conditions need not be identical. Identical values can stand only once. One block for each molecule: values may come before it.

Experiments:
[1] = target: human FUT8 (α-1,6-fucosyltransferase) (human) (UniProt Q9BYC5); experiment: ITC; Auto-iTC200, 25 °C; FUT8 70 μM, ligand 400 μM to 1 mM; 25 mM Tris pH 7.5, 150 mM NaCl, 1 mM GDP (excess GDP); one-site model; duplicate
human FUT8 [2] = target: T1, human FUT8 (Homo sapiens, UniProt Q9BYC5); experiment: Isothermal titration calorimetry (ITC) of ligands binding to FUT8
T1 construct: made in house
T1 sequence (Q9BYC5 1-575): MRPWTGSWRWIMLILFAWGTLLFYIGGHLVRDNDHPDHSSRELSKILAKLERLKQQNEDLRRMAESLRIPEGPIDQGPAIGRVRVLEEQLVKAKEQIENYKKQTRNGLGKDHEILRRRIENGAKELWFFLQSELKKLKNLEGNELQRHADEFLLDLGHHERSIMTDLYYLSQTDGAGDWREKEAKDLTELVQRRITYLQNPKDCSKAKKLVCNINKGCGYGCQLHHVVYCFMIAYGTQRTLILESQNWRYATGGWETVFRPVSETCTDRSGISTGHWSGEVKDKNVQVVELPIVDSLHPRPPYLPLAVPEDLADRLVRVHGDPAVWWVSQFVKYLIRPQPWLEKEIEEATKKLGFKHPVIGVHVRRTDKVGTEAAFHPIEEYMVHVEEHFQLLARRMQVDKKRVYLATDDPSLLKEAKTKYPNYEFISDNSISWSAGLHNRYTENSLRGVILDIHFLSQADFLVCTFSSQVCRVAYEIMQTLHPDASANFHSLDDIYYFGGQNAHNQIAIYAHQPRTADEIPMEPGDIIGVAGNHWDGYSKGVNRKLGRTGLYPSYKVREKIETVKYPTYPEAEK
Method: (§1) The human FUT8 was purified as previously described.[12]
ITC was performed to characterize the interaction of FUT8 with GDP, G0, the G0-peptide, the M3N2-peptide, M3N2, and M5N2-Asn. All experiments were carried out in an Auto-iTC200 (Microcal, GE Healthcare) at 25 °C. The concentration of FUT8 was 70 μM and the ligand concentration ranged from 400 μM to 1 mM. The experiments used 25 mM Tris (pH 7.5) and 150 mM NaCl for the characterization of the binding of FUT8 against GDP and G0. To characterize the binding of FUT8 against all N-glycans in the presence of an excess of GDP, the conditions were 25 mM Tris (pH 7.5), 150 mM NaCl, and 1 mM GDP. The experiments were performed in duplicate. Data integration, correction, and analysis were carried out in Origin 7 (Microcal). The data were fitted to a one-site equilibrium-binding model.

CHO^KO:mgat1 = experiment: Site-specific N-glycan analysis of recombinant glycoproteins produced in CHO^KO:mgat1; assay type: cell-based; conditions: for Man5-GlcNAc2-Fuc/total / Man5-GlcNAc2/total: total = sum of top five glycopeptide intensities by LC–MS
human FUT8 [3] = target: T1, human FUT8; experiment: FUT8 enzyme kinetics, GDP-Glo luminescence assay; assay type: biochemical
Method: as §1
Enzyme kinetics for FUT8 were determined using GDP-Glo luminescence assays (Promega). Reactions contained 100 nM FUT8 in 25 mM Tris (pH 7.5), 150 mM NaCl, and 200 μM GDP-fucose in the presence of the ligands. The concentrations of G0, the G0-peptide, the M3N2-peptide, M3N2, and M5N2-Asn ranged from 5 μM to 1 mM. To determine the kinetic parameters for GDP-fucose, we used 100 nM FUT8 in 25 mM Tris (pH 7.5), 150 mM NaCl, and variable concentrations of GDP-fucose (from 5 to 500 μM) in the presence of 500 μM of G0. Reactions were incubated for 30 min at 37 °C and stopped using 5 μL of GDP-detection reagent at a 1:1 ratio in white and opaque 384-well plates. Then, the plates were incubated in the dark for 1 h at room temperature. Subsequently, the luminance values were obtained by using a Synergy HT plate reader (Biotek).
To estimate the amount of GDP produced in the glycosyltransferase reaction, we created a GDP standard curve. The values were corrected for enzyme hydrolysis in the absence of the substrate acceptor and fitted to a nonlinear Michaelis–Menten equation in GraphPad Prism 6 software from which the Km, kcat, and Vmax along with their standard deviations were obtained. All the experiments were performed in duplicate.

human FUT8 [4] = target: T1, human FUT8; experiment: FUT8 substrate specificity by MALDI-TOF MS; assay type: biochemical; conditions: 18 μM FUT8, 18 h at RT (long incubation)
Method: Solutions of the different N-glycan structures (1 nmol) were incubated with a FUT8 enzyme (18 μM) and GDP-fucose (2 nmol) in 25 mM Tris and 150 mM NaCl (pH 7.5) (total volume of 10 μL) for 18 h at RT. The reaction mixture was analyzed by MALDI-TOF mass spectrometry employing a solution of 2,5-dihydroxybenzoic acid (DHB, 5 mg/mL in CH3CN:0.1% TFA, 30:70, containing 0.05% NaCl) as a matrix. The MALDI-TOF spectra were recorded on an Ultraflextreme III time-of-flight mass spectrometer equipped with a pulsed Nd:YAG laser (355 nm) and controlled by FlexControl 3.3 software (Bruker Daltonics, Bremen, Germany). The m/z range was selected according to the mass of the sample and the acquired spectra were processed with FlexAnalysis 3.3 software (Bruker Daltonics, Bremen, Germany).

human FUT8 [5] = target: T1, human FUT8; experiment: STD NMR of ligands with FUT8; assay type: binding; conditions: 20 μM FUT8, absence or presence of GDP (1 mM), 283 K
Method: All experiments were performed at a temperature of 283 K using a Bruker AVANCE-III 800 MHz spectrometer with a 5 mm TXI triple resonance probe with z axis pulse field gradients (5 mm PATXI 1H-13C/15N/D Z-GRD). The ligands, M3N2, the M3N2-peptide, the G0-peptide, and the naked peptide, had their labile protons exchanged with deuterium by dissolving in D2O, freeze-drying for three times, and finally dissolving at 5 mM in D2O. M3N2-peptide, G0-peptide, and naked peptide ^1H-NMR and ^13C-NMR signals were assigned using ^1H-^13C HSQC (hsqcedetgp), ^1H-^13C HSQC-TOCSY (hsqcgpmlph), TOCSY (mlevph), COSY (cosygmpfqf), and HMBC (hmbcgplpndqf). 2D-NOESY experiments were carried out for M3N2 and the M3N2-peptide using the Bruker pulse program noesygpph with mixing times (d8) of 100, 150, 200, 250, 300, 400, 600, 800, 1000, and 1500 ms. The relaxation time was set to 1 s. Fourier transform was applied to both dimensions and the corresponding horizontal traces were extracted for H1B (4.47 ppm) and H5A (3.42 ppm) in the case of the M3N2-peptide. […] Average H1A-H5A and H1B-H5B distances were calculated from the 1 μs MD simulation and used for the calculation according to the equation in Figure S9c.
STD NMR spectra were measured for the corresponding N-glycans in the presence of 20 μM FUT8 both with and without GDP (1 mM) using the Bruker pulse program stddiff.3. […]

[6] = excess GDP (1 mM), 25 °C, pH 7.5
[7] = 100 nM FUT8, 37 °C, 30 min, acceptors with 200 μM GDP-fucose, GDP-Fuc with saturating G0 (500 μM)
[8] = GDP titrated into FUT8, 25 °C, pH 7.5

dH [1]: -13.4 kJ/mol
stoichiometry N [1]: 0.84
Molecule: G0-peptide (KVANKT carrying the biantennary complex N-glycan G0 on Asn4)

Kd (human FUT8 [2]; [6]): 406 ± 159 µM
Molecule: CC(=O)N[C@@H]1[C@@H](O)[C@H](O[C@@H]2O[C@H](CO)[C@@H](O[C@@H]3O[C@H](CO[C@H]4O[C@H](CO)[C@@H](O)[C@H](O)[C@@H]4O)[C@@H](O)[C@H](O[C@H]4O[C@H](CO)[C@@H](O)[C@H](O)[C@@H]4O)[C@@H]3O)[C@H](O)[C@H]2NC(C)=O)[C@@H](CO)O[C@H]1NC(=O)C[C@H](NC(=O)[C@H](C)NC(=O)[C@@H](NC(=O)[C@@H](N)CCCCN)C(C)C)C(=O)N[C@@H](CCCCN)C(=O)N[C@H](C(=O)O)[C@@H](C)O [M3N2-peptide, Man3GlcNAc2 N-glycopeptide]

Km (human FUT8 [3]; [7]): 14.6 ± 3.4 µM
Vmax (human FUT8 [3]; [7]): 244.3 ± 13.1 nmol·min^–1·mg^–1
kcat (human FUT8 [3]; [7]): 14.17 ± 0.76 min^–1
Catalytic efficiency of the transfer reaction relative to G0 (human FUT8 [3]; GDP-Fuc more efficient than G0): ~10 fold
Molecule: C[C@@H]1O[C@H](OP(=O)(O)OP(=O)(O)OC[C@H]2O[C@@H](n3cnc4c(=O)[nH]c(N)nc43)[C@H](O)[C@@H]2O)[C@@H](O)[C@H](O)[C@@H]1O [GDP-Fuc, GDP-β-L-fucose]

Further lines, the molecule ahead of its results:

Molecule: CC(=O)N[C@@H]1[C@@H](O)[C@H](O[C@@H]2O[C@H](CO)[C@@H](O[C@@H]3O[C@H](CO[C@H]4O[C@H](CO)[C@@H](O)[C@H](O)[C@@H]4O[C@@H]4O[C@H](CO)[C@@H](O)[C@H](O)[C@H]4NC(C)=O)[C@@H](O)[C@H](O[C@H]4O[C@H](CO)[C@@H](O)[C@H](O)[C@@H]4O[C@@H]4O[C@H](CO)[C@@H](O)[C@H](O)[C@H]4NC(C)=O)[C@@H]3O)[C@H](O)[C@H]2NC(C)=O)[C@@H](CO)O[C@H]1NC(=O)C[C@H](NC(=O)[C@H](C)NC(=O)[C@@H](NC(=O)[C@@H](N)CCCCN)C(C)C)C(=O)N[C@@H](CCCCN)C(=O)N[C@H](C(=O)O)[C@@H](C)O [G0-peptide]
Kd (human FUT8 [2]; [6]): 10 ± 4 µM

Molecule: EPO: recombinant erythropoietin expressed in CHO cells
Man5-GlcNAc2-Fuc/total (CHO^KO:mgat1; EPO N-glycosite N51): 0.48
Man5-GlcNAc2/total (CHO^KO:mgat1; EPO N-glycosite N51): 0.52
Man5-GlcNAc2-Fuc/total (CHO^KO:mgat1; EPO N-glycosite N65): 0.90
Man5-GlcNAc2/total (CHO^KO:mgat1; EPO N-glycosite N65): 0.10
Man5-GlcNAc2-Fuc/total (CHO^KO:mgat1; EPO N-glycosite N110): 0.67
Man5-GlcNAc2/total (CHO^KO:mgat1; EPO N-glycosite N110): 0.33
Core fucosylation of high-mannose N-glycan in KO mgat1 (CHO^KO:mgat1; N65 glycosite): almost exclusively core-fucosylated
Core fucosylation of high-mannose N-glycans in KO mgat1 (CHO^KO:mgat1; all glycosites): acquired core Fuc to some degree

Molecule: M3N2-peptide (Man3GlcNAc2 N-glycopeptide, KVANKT)
dH [1]: 32.2 kJ/mol
stoichiometry N [1]: 1.6

Molecule: CC(=O)N[C@H]1[C@H](O[C@H]2[C@H](O)[C@@H](NC(C)=O)C(O)O[C@@H]2CO)O[C@H](CO)[C@@H](O[C@@H]2O[C@H](CO[C@H]3O[C@H](CO)[C@@H](O)[C@H](O)[C@@H]3O)[C@@H](O)[C@H](O[C@H]3O[C@H](CO)[C@@H](O)[C@H](O)[C@@H]3O)[C@@H]2O)[C@@H]1O (some centres unmarked) [M3N2, Man3GlcNAc2 N-glycan oligosaccharide]
FUT8 activity against acceptor substrate (human FUT8 [3]; acceptor 5 μM to 1 mM): inactive
Core fucosylation by FUT8, qualitative (MALDI-TOF MS) (human FUT8 [4]): very poorly glycosylated
Binding to FUT8 by ITC (human FUT8 [2]; excess GDP (1 mM)): could not determine a Kd
STD NMR interaction with FUT8 (human FUT8 [5]): no STD NMR signals were observed

Molecule: CC(=O)N[C@@H]1[C@@H](O)[C@H](O[C@@H]2O[C@H](CO)[C@@H](O[C@@H]3O[C@H](CO[C@H]4O[C@H](CO[C@H]5O[C@H](CO)[C@@H](O)[C@H](O)[C@@H]5O)[C@@H](O)[C@H](O[C@H]5O[C@H](CO)[C@@H](O)[C@H](O)[C@@H]5O)[C@@H]4O)[C@@H](O)[C@H](O[C@H]4O[C@H](CO)[C@@H](O)[C@H](O)[C@@H]4O)[C@@H]3O)[C@H](O)[C@H]2NC(C)=O)[C@@H](CO)O[C@H]1NC(=O)C[C@H](N)C(=O)O [M5N2-Asn, Man5GlcNAc2-Asn]
Initial velocity, fold worse than that of G0 and the G0-peptide (human FUT8 [3]; 1 mM acceptor substrate): ~14 fold
Binding to FUT8 by ITC (human FUT8 [2]; excess GDP (1 mM)): could not observe a binding titration profile

Molecule: Nc1nc2c(ncn2[C@@H]2O[C@H](COP(=O)(O)OP(=O)(O)O)[C@@H](O)[C@H]2O)c(=O)[nH]1 [GDP, reference compound]
Kd (human FUT8 [2]; [8]): 6.11 µM and 6.1 µM
n (stoichiometry of binding) (human FUT8 [2]; [8]): 0.60
ΔG (human FUT8 [2]; [8]): –7.09 ± 1.65 kcal/mol
ΔH (human FUT8 [2]; [8]): –5.02 ± 0.4 kcal/mol
–TΔS (human FUT8 [2]; [8]): –2.07 ± 0.48 kcal/mol
